Experiment [1] is described as follows: Inhibition of CD28-CD80 interaction in the presence of fetal bovine serum (FBS).
For experiment [2], the target named is T-cell surface glycoprotein CD4 (Homo sapiens, UniProt P01730). Nature of the experiment: Inhibitory concentration against CD4-gp120 binding in the absence of fetal bovine serum (FBS); Range is 0.13-0.5 uM.
Experiment [3] in a line: Inhibition of CD28-CD80 interaction in the absence of fetal bovine serum (FBS).

Take `CN1C(=O)[C@@H](c2cc(Cl)c(O)c(Cl)c2)NC(=O)[C@@H]2NC(=O)[C@@H](c3cc(Cl)c(O)c(Cl)c3)NC(=O)[C@H](NC(=O)C(=O)c3cc(Cl)c(O)c(Cl)c3)Cc3c[nH]c4cc(ccc34)-c3cc2cc(c3O)Oc2ccc(cc2)C[C@H]1C(=O)N[C@@H](C(=O)O)c1ccc(O)cc1` [ISOCOMPLESTATIN]: the IC50 – broadly, the concentration that gives 50% inhibition – was found to be 420 nM in experiment [1], 130 nM in experiment [2] and 10 nM in experiment [3].
On to `CC(=O)CC(O)(C(=O)N[C@@H]1Cc2c[nH]c3cc(ccc23)-c2cc3cc(c2O)Oc2ccc(cc2)C[C@@H](C(=O)N[C@@H](C(=O)O)c2ccc(O)cc2)N(C)C(=O)[C@@H](c2cc(Cl)c(O)c(Cl)c2)NC(=O)[C@@H]3NC(=O)[C@@H](c2cc(Cl)c(O)c(Cl)c2)NC1=O)c1cc(Cl)c(O)c(Cl)c1` (some centres undefined), for which the IC50 was determined as 220 nM in experiment [1], 130 nM in experiment [2] and 8 nM in experiment [3].
The matching figures for `CN1C(=O)[C@@H](c2cc(Cl)c(O)c(Cl)c2)NC(=O)[C@@H]2NC(=O)[C@@H](c3cc(Cl)c(O)c(Cl)c3)NC(=O)[C@H](NC(=O)C(=O)c3cc(Cl)c(O)c(Cl)c3)Cc3c[nH]c4c(cccc34)-c3cc2cc(c3O)Oc2ccc(cc2)C[C@H]1C(=O)N[C@@H](C(=O)O)c1ccc(O)cc1` [CHLOROPEPTIN]: 380 nM, 130 nM and 10 nM.

Values taken from ChEMBL document CHEMBL1136573, “Condensed aromatic peptide family of microbial metabolites, inhibitors of CD28-CD80 interactions” (Bioorg Med Chem Lett, 2003).
